{"source": "paper PMC8588536", "about": "“Iridal-Type Triterpenoids Displaying Human Neutrophil Elastase Inhibition and Anti-Inflammatory Effects from Belamcanda chinensis” (Molecules, 2021)", "key": {"[1]": {"tested_on": "NF-κB p65 in LPS-stimulated RAW264.7 cells", "assay": "NF-κB nuclear translocation, immunocytochemistry", "assay_type": "cell-based, mouse", "details": "pre-treatment 2 h prior to LPS 1 µg/mL for 16 h", "method": "RAW264.7 cells cultured on round cover slips coated with poly-L-lysine were treated with triterpenoids (1 or 3 µg/mL) 2 h prior to LPS treatment, followed by LPS (1 µg/mL) for 16 h. The cells were washed with 1 x phosphate buffered saline (PBS) and fixed with 4% paraformaldehyde for 30 min. After washing the fixed cells with PBS, the cells were permeabilized with a blocking buffer (1% normal goat serum and 0.2% Triton X-100 in PBS) for 30 min at room temperature, and were incubated with an anti-NF-κB p65 antibody (1:200 dilution, Cell Signaling Technology, Danvers, MA, USA) at 4 °C overnight. After three washes in PBS, the cells were incubated in the dark for 1 h with the mixture of FITC-conjugated anti-rabbit IgG fluorescent secondary antibody diluted at 1:500 in PBS. Finally, the cells were stained with 2 µg/mL Hoechst for nuclei staining. The cells were washed with PBS, wet-mounted on glass slides, and observed using a confocal laser-scanning microscope (Olympus, Tokyo, Japan). The negative control (NC) was analyzed by omitting the primary antibody."}, "[2]": {"biological_target": "T1, Human neutrophil elastase (HNE, EC 3.4.21.37) (Homo sapiens, UniProt P08246)", "T1 construct": "purchased Sigma-Aldrich", "T1 sequence (P08246 30-267)": "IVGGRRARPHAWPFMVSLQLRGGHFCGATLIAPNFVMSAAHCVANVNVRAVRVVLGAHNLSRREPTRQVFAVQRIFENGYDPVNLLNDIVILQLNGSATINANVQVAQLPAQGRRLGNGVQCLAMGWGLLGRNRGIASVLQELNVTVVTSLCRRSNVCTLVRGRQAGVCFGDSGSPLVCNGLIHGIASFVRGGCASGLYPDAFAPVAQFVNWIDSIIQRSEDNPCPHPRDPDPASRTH", "assay": "Human neutrophil elastase inhibition, spectrophotometric, MeOSuc-AAPV-pNA substrate", "assay_type": "biochemical", "method": "Human neutrophil elastase (EC 3. 4. 21. 37) (Sigma-Aldrich, St. Louis, MO, USA) activity was measured in accordance with the previous description with subtle modification, by observing the formation of p-nitroaniline after the hydrolysis of N-methoxysuccinyl-Ala-Ala-Pro-Val-p-nitro anilide at 405 nm. The inhibitors were dissolved in dimethyl sulfoxide (DMSO) and diluted to a few concentrations. In brief, in a 96-well plate, 10 µL of inhibitor solution and 40 µL of 1.5 mM of MeOSuc-AAPV-pNA were added as a substrate in the 0.02 mM Tris-HCl buffer solutions (pH 8.0). Then, 20 µL of human neutrophil elastase (0.2 unit/mL) was added to the mixture. The test mixtures were incubated and mixed for 15 min at room temperature and then screened at 405 nm for 30 min every 30 s.\nActivity (%) = 100 [1/(1 + ([I]/IC50))].(1)\nThe modalities of HNE inhibition were estimated in experiments using particular concentrations of the substrates and inhibitors, respectively. The Michaelis–Menten constant (Km) and maximal velocity (Vmax) were investigated by a Lineweaver–Burk plot. The KI, dissociation constants for inhibitor binding to the free enzyme were calculated using a Dixon plot. Equations (2)–(4) are representatives for deriving the aforementioned parameters. (2) 1/V=Km/Vmax(1+[I]/Ki)×1/S+1/Vmax (3) Slop=Km/KiVmax[I]+Km/Vmax (4) Intercept=1/KiVmax[I]+1/Vmax."}, "[3]": {"biological_target": "T2, Human neutrophil elastase (HNE) (Homo sapiens, UniProt P08246)", "T2 construct": "purchased Sigma-Aldrich", "T2 sequence (P08246 30-267)": "T1 sequence (P08246 30-267)", "assay": "Fluorescence quenching binding affinity to HNE", "details": "inhibitor 7.8–31.2 µM", "method": "To measure fluorescence from the HNE enzyme, 10 μL of 0.01 unit/mL enzyme solution with 180 μL of Tris-HCl buffer (0.02 mM) was accurately added into the 96-well black immunoplates. Then, 10 μL of incremental concentrations (7.8–31.2 μΜ) of inhibitors were added into each well. All fluorescence spectra were measured from 280 to 400 nm with emission slits regulated to 2.0 nm, and the excitation wavelength was 260 nm. The Stern–Volmer quenching constant (KSV) was calculated using Equation (5). All experiments were conducted in triplicate, and the mean values were calculated. (5) […]=1+KSV[Q], where F0 and F are the fluorescence intensities in the absence and presence of quencher (Q). KSV is the Stern–Volmer quenching constant [LM^−1]. For static quenching, the correlation between the fluorescence intensity and the concentration of quencher for the series of reactions can be estimated by Equation (6). (6) log[(F0−F)/F]=logKA+nlog[Q]f.\nF0 and F are the fluorescence intensities in the absence and presence of inhibitor; KA is the binding constant; n is the number of binding sites of the enzyme; Qf is the concentration of inhibitor."}}, "data": [{"smiles": "CC(C)(C)c1ccc(S(=O)(=O)/C=C/C#N)cc1", "note": "[Bay 11-7085, reference compound]", "values": [{"measurement": "NF-κB translocation to the nucleus (immunocytochemical staining)", "setting": "[1]", "value": "suppressed"}]}, {"smiles": "COC1OC(C=C(C)C=CC=C(C)CCC=C(C)C)CC12C(CCCO)C(=C(C)C=O)CCC2(C)O", "note": "(centres unmarked) [Compound 3, iridobelamal B]", "values": [{"measurement": "Ki", "setting": "[2]; Dixon plots, read-out: Ki (inhibition constant)", "value": 6.2, "unit": "µM"}, {"measurement": "Type of Inhibition", "setting": "[2]; Lineweaver-Burk and Dixon plots, reversibility from activity vs enzyme concentration plots", "value": "noncompetitive inhibitor"}, {"measurement": "fold better HNE inhibition than monocyclic compounds (1 and 2)", "setting": "[2]; compared with compounds 1 and 2", "value": "2–3 fold"}, {"measurement": "IC50", "setting": "[2]; concentration that caused 50% enzyme activity loss, three sets of experiments", "value": "6.8 ± 0.3", "unit": "µM"}, {"measurement": "n (number of binding sites of the enzyme)", "setting": "[3]", "value": 0.9727}, {"measurement": "Kd", "setting": "[3]; read-out: KA (association constant of the complex of enzyme and quencher) (converted)", "value": 13.5, "unit": "µM"}, {"measurement": "KSV (Stern-Volmer quenching constant)", "setting": "[3]; λEx 260 nm, λEm 280–400 nm", "value": 67640, "unit": "L/mol"}]}]}
